PubChem BioAssay AID652171 (Broad Institute, 2013)

Tested on: INS-1E cytokine-induced apoptosis, ATP luminescence, 48 h
Assay: inhibition of INS-1E apoptosis – cell-based, ATP luminescence, dry powder, mechanism study for beta-cell protection project, late-stage follow-up (AID 652171)

| SMILES | inhibition of cytokine-induced cell death (at 10 µM (top of the series)) | inhibition of cytokine-induced cell death (at 20 µM (top of the series)) |
| --- | --- | --- |
| C[C@@H]1CN([C@@H](C)CO)C(=O)c2cccc(NC(=O)Nc3cccc4ccccc34)c2O[C@H]1CN(C)S(=O)(=O)c1ccc2c(c1)OCCO2 | 90% |  |
| C[C@@H]1CN([C@@H](C)COC(=O)NCCOCCOCCN)C(=O)c2cccc(NC(=O)Nc3cccc4ccccc34)c2O[C@H]1CN(C)S(=O)(=O)c1ccc2c(c1)OCCO2 |  | 102% |
